{"source": "patent US20220281876A1", "about": "“DEGRADATION OF BRUTON'S TYROSINE KINASE (BTK) BY CONJUGATION OF BTK INHIBITORS WITH E3 LIGASE LIGAND AND METHODS OF USE” (BEIGENE, LTD., priority 2019, published 2022)"}
{"molecular_target": "T1, BTK (Homo sapiens, UniProt Q06187)", "T1 construct": "endogenous in cells; host or cells: Ramos cells", "T1 sequence (Q06187 whole entry)": "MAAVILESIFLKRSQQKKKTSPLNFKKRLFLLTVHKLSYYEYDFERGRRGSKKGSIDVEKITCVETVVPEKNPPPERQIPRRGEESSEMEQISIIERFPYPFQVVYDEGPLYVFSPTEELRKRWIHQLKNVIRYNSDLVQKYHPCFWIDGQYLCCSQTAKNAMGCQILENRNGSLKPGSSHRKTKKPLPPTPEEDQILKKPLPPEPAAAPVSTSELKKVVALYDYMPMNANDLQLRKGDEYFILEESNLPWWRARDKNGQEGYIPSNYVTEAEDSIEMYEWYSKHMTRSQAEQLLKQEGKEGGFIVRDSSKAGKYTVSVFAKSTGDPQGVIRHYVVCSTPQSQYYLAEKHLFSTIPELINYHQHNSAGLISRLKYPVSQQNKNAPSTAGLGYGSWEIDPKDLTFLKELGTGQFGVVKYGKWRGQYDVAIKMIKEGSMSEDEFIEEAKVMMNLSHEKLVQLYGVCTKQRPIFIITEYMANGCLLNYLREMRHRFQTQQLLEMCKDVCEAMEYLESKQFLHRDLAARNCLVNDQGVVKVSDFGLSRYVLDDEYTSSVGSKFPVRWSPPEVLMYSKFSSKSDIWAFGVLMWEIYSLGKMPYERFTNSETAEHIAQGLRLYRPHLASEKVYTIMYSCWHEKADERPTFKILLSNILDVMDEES", "assay": "BTK cell degradation in Ramos cells (total BTK ELISA)", "type": "cell-based", "conditions": "16 h incubation, FastScan total BTK ELISA", "summary_of_the_method": "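Ramos cells were treated for 16 h with compounds (7 doses, 5-fold dilution series, 0.1% DMSO). Total BTK in cell lysates was quantified by sandwich ELISA with TMB read-out at 450 nm.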", "units": {"DC50": "nM"}}
{"smiles": "NC(=O)c1c(-c2ccc(Oc3ccccc3)cc2)nn2c1NCC[C@H]2C1CCN(C(=O)c2cn(CCOCCOCCOCCOCCOCCNc3cccc4c3C(=O)N(C3CCC(=O)NC3=O)C4=O)nn2)CC1", "note": "(stereo partly drawn) [Example 15, (7S)-7-(1-(1-(17-((2-(2,6-dioxopiperidin-3-yl)-1,3-dioxoisoindolin-4-yl)amino)-3,6,9, 12, 15-pentaoxaheptadecyl)-1H-1,2,3-triazole-4-carbonyl)piperidin-4-yl)-2-(4-phenoxyphenyl)-4,5,6,7-tetrahydropyrazolo[1,5-a]pyrimidine-3-carboxamide]", "DC50": 78}
{"smiles": "NC(=O)c1c(-c2ccc(Oc3ccccc3)cc2)nn2c1NCC[C@H]2C1CCN(C(=O)CCN2CCC(N3CCN(c4ccc5c(c4)C(=O)N(C4CCC(=O)NC4=O)C5=O)CC3)CC2)CC1", "note": "(stereo partly drawn) [Example 156, (7S)-7-(1-(3-(4-(4-(2-(2,6-dioxopiperidin-3-yl)-1,3-dioxoisoindolin-5-yl)piperazin-1-yl)piperidin-1-yl)propanoyl)piperidin-4-yl)-2-(4-phenoxyphenyl)-4,5,6,7-tetrahydropyrazolo[1,5-a]pyrimidine-3-carboxamide]", "DC50": 1680}
{"smiles": "NC(=O)c1c(-c2ccc(Oc3ccccc3)cc2)nn2c1NCC[C@H]2C1CCN(C(=O)CCCc2cn(CCOCCNc3cccc4c3C(=O)N(C3CCC(=O)NC3=O)C4=O)nn2)CC1", "note": "(stereo partly drawn) [Example 18, (7S)-7-(1-(4-(1-(2-(2-((2-(2,6-dioxopiperidin-3-yl)-1,3-dioxoisoindolin-4-yl)amino)ethoxy)ethyl)-1H-1,2,3-triazol-4-yl)butanoyl)piperidin-4-yl)-2-(4-phenoxyphenyl)-4,5,6,7-tetrahydropyrazolo[1,5-a]pyrimidine-3-carboxamide]", "DC50": 236}
{"smiles": "NC(=O)c1c(-c2ccc(Oc3ccccc3)cc2)nn2c1NCC[C@H]2C1CCN(C(=O)c2cn(CCOCCOCCOCCOCCNc3ccc4c(c3)C(=O)N(C3CCC(=O)NC3=O)C4=O)nn2)CC1", "note": "(stereo partly drawn) [Example 12, (7S)-7-(1-(1-(14-((2-(2,6-dioxopiperidin-3-yl)-1,3-dioxoisoindolin-5-yl)amino)-3,6,9, 12-tetraoxatetradecyl)-1H-1,2,3-triazole-4-carbonyl)piperidin-4-yl)-2-(4-phenoxyphenyl)-4,5,6,7-tetrahydropyrazolo[1,5-a]pyrimidine-3-carboxamide]", "DC50": "> 10000"}
{"smiles": "NC(=O)c1c(-c2ccc(Oc3ccccc3)cc2)nn2c1NCC[C@H]2C1CCN(C(=O)CCN2CCN(C(=O)CNc3ccc4c(c3)C(=O)N(C3CCC(=O)NC3=O)C4=O)CC2)CC1", "note": "(stereo partly drawn) [Example 63, (7S)-7-(1-(3-(4-((2-(2,6-dioxopiperidin-3-yl)-1,3-dioxoisoindolin-5-yl)glycyl)piperazin-1-yl)propanoyl)piperidin-4-yl)-2-(4-phenoxyphenyl)-4,5,6,7-tetrahydropyrazolo[1,5-a]pyrimidine-3-carboxamide]", "DC50": 2.9}
{"smiles": "NC(=O)c1c(-c2ccc(Oc3ccccc3)cc2)nn2c1NCC[C@H]2C1CCN(C(=O)c2cn(CCOCCOCCOCCNc3cccc4c3C(=O)N(C3CCC(=O)NC3=O)C4=O)nn2)CC1", "note": "(stereo partly drawn) [Example 8, (7S)-7-(1-(1-(2-(2-(2-(2-((2-(2,6-dioxopiperidin-3-yl)-1,3-dioxoisoindolin-4-yl)amino)ethoxy)ethoxy)ethoxy)ethyl)-1H-1,2,3-triazole-4-carbonyl)piperidin-4-yl)-2-(4-phenoxyphenyl)-4,5,6,7-tetrahydropyrazolo[1,5-a]pyrimidine-3-carboxamide]", "DC50": 128}
{"smiles": "CN(C/C=C/C(=O)N1CCC([C@@H]2CCNc3c(C(N)=O)c(-c4ccc(Oc5ccccc5)cc4)nn32)CC1)CCOCCOCCN1C(=O)CCC(N2Cc3c(N)cccc3C2=O)C1=O", "note": "(stereo partly drawn) [Example 55, (7S)-7-(1-((E)-4-((2-(2-(2-(3-(4-amino-1-oxoisoindolin-2-yl)-2,6-dioxopiperidin-1-yl)ethoxy)ethoxy)ethyl)(methyl)amino)but-2-enoyl)piperidin-4-yl)-2-(4-phenoxyphenyl)-4,5,6,7-tetrahydropyrazolo[1,5-a]pyrimidine-3-carboxamide]", "DC50": 382}
{"smiles": "NC(=O)c1c(-c2ccc(Oc3ccccc3)cc2)nn2c1NCC[C@H]2C1CCN(C(=O)c2cn(CCOCCCc3cccc4c3CN(C3CCC(=O)NC3=O)C4=O)nn2)CC1", "note": "(stereo partly drawn) [Example 1, (7S)-7-(1-(1-(2-(3-(2-(2,6-dioxopiperidin-3-yl)-1-oxoisoindolin-4-yl)propoxy)ethyl)-1H-1,2,3-triazole-4-carbonyl)piperidin-4-yl)-2-(4-phenoxyphenyl)-4,5,6,7-tetrahydropyrazolo[1,5-a]pyrimidine-3-carboxamide]", "DC50": "> 10000"}
{"smiles": "NC(=O)c1c(-c2ccc(Oc3ccccc3)cc2)nn2c1NCC[C@H]2C1CCN(C(=O)CCc2ccc(NC(=O)CNc3ccc4c(c3)C(=O)N(C3CCC(=O)NC3=O)C4=O)cc2)CC1", "note": "(stereo partly drawn) [Example 57, (7S)-7-(1-(3-(4-(2-((2-(2,6-dioxopiperidin-3-yl)-1,3-dioxoisoindolin-5-yl)amino)acetamido)phenyl)propanoyl)piperidin-4-yl)-2-(4-phenoxyphenyl)-4,5,6,7-tetrahydropyrazolo[1,5-a] pyrimidine-3-carboxamide]", "DC50": "> 10000"}
{"smiles": "NC(=O)c1c(-c2ccc(Oc3ccccc3)cc2)nn2c1NCC[C@H]2C1CCN(C(=O)CCCNc2cccc3c2C(=O)N(C2CCC(=O)NC2=O)C3=O)CC1", "note": "(stereo partly drawn) [Example 32, (7S)-7-(1-(4-((2-(2,6-dioxopiperidin-3-yl)-1,3-dioxoisoindolin-4-yl)amino)butanoyl)piperidin-4-yl)-2-(4-phenoxyphenyl)-4,5,6,7-tetrahydropyrazolo[1,5-a]pyrimidine-3-carboxamide]", "DC50": "> 10000"}
{"smiles": "NC(=O)c1c(-c2ccc(Oc3ccccc3)cc2)nn2c1NCC[C@H]2C1CCN(C(=O)CCCc2cn(CCOCCOCCOCCNc3cccc4c3C(=O)N(C3CCC(=O)NC3=O)C4=O)nn2)CC1", "note": "(stereo partly drawn) [Example 21, (7S)-7-(1-(4-(1-(2-(2-(2-(2-((2-(2,6-dioxopiperidin-3-yl)-1,3-dioxoisoindolin-4-yl)amino)ethoxy)ethoxy)ethoxy)ethyl)-1H-1,2,3-triazol-4-yl)butanoyl)piperidin-4-yl)-2-(4-phenoxyphenyl)-4,5,6,7-tetrahydropyrazolo[1,5-a]pyrimidine-3-carboxamide]", "DC50": 388}
{"smiles": "NC(=O)c1c(-c2ccc(Oc3ccccc3)cc2)nn2c1NCC[C@H]2C1CCN(C(=O)c2cn(CCOCCOCCOCCCc3cccc4c3CN(C3CCC(=O)NC3=O)C4=O)nn2)CC1", "note": "(stereo partly drawn) [Example 6, (7S)-7-(1-(1-(2-(2-(2-(3-(2-(2,6-dioxopiperidin-3-yl)-1-oxoisoindolin-4-yl)propoxy)ethoxy)ethoxy)ethyl)-1H-1,2,3-triazole-4-carbonyl)piperidin-4-yl)-2-(4-phenoxyphenyl)-4,5,6,7-tetrahydropyrazolo[1,5-a]pyrimidine-3-carboxamide]", "DC50": 242}
{"smiles": "CN(C/C=C/C(=O)N1CCC([C@@H]2CCNc3c(C(N)=O)c(-c4ccc(Oc5ccccc5)cc4)nn32)CC1)CCCCCNc1cccc2c1CN(C1CCC(=O)NC1=O)C2=O", "note": "(stereo partly drawn) [Example 46, (7S)-7-(1-((E)-4-((5-((2-(2,6-dioxopiperidin-3-yl)-1-oxoisoindolin-4-yl)amino)pentyl)(methyl)amino)but-2-enoyl)piperidin-4-yl)-2-(4-phenoxyphenyl)-4,5,6,7-tetrahydropyrazolo[1,5-a]pyrimidine-3-carboxamide]", "DC50": 198}
{"smiles": "CN(CCC(=O)N1CCC([C@@H]2CCNc3c(C(N)=O)c(-c4ccc(Oc5ccccc5)cc4)nn32)CC1)CC1CCN(c2ccc3c(c2)C(=O)N(C2CCC(=O)NC2=O)C3=O)CC1", "note": "(stereo partly drawn) [Example 64, (7S)-7-(1-(3-(((1-(2-(2,6-dioxopiperidin-3-yl)-1,3-dioxoisoindolin-5-yl)piperidin-4-yl)methyl)(methyl)amino)propanoyl)piperidin-4-yl)-2-(4-phenoxyphenyl)-4,5,6,7-tetrahydropyrazolo[1,5-a]pyrimidine-3-carboxamide]", "DC50": 35}
{"smiles": "NC(=O)c1c(-c2ccc(Oc3ccccc3)cc2)nn2c1NCC[C@H]2C1CCN(C(=O)CCCc2ccc(NC(=O)CNc3ccc4c(c3)C(=O)N(C3CCC(=O)NC3=O)C4=O)cc2)CC1", "note": "(stereo partly drawn) [Example 58, (7S)-7-(1-(4-(4-(2-((2-(2,6-dioxopiperidin-3-yl)-1,3-dioxoisoindolin-5-yl)amino)acetamido)phenyl)butanoyl)piperidin-4-yl)-2-(4-phenoxyphenyl)-4,5,6,7-tetrahydropyrazolo[1,5-a] pyrimidine-3-carboxamide]", "DC50": 28}
{"smiles": "NC(=O)c1c(-c2ccc(Oc3ccccc3)cc2)nn2c1NCC[C@H]2C1CCN(C(=O)CCc2ccc(N3CCN(c4ccc5c(c4)C(=O)N(C4CCC(=O)NC4=O)C5=O)CC3)cc2)CC1", "note": "(stereo partly drawn) [Example 40, (7S)-7-(1-(3-(4-(4-(2-(2,6-dioxopiperidin-3-yl)-1,3-dioxoisoindolin-5-yl)piperazin-1-yl)phenyl)propanoyl)piperidin-4-yl)-2-(4-phenoxyphenyl)-4,5,6,7-tetrahydropyrazolo[1,5-a]pyrimidine-3-carboxamide]", "DC50": 74}
{"smiles": "NC(=O)c1c(-c2ccc(Oc3ccccc3)cc2)nn2c1NCC[C@H]2C1CCN(C(=O)COCCOCCNC(=O)CCN2CCN(c3ccc4c(c3)C(=O)N(C3CCC(=O)NC3=O)C4=O)CC2)CC1", "note": "(stereo partly drawn) [Example 28, (7S)-7-(1-(2-(2-(2-(3-(4-(2-(2,6-dioxopiperidin-3-yl)-1,3-dioxoisoindolin-5-yl)piperazin-1-yl)propanamido)ethoxy)ethoxy)acetyl)piperidin-4-yl)-2-(4-phenoxyphenyl)-4,5,6,7-tetrahydropyrazolo[1,5-a]pyrimidine-3-carboxamide]", "DC50": 1480}
{"smiles": "NC(=O)c1c(-c2ccc(Oc3ccccc3)cc2)nn2c1NCC[C@H]2C1CCN(C(=O)COCCCCCCCCNc2cccc3c2C(=O)N(C2CCC(=O)NC2=O)C3=O)CC1", "note": "(stereo partly drawn) [Example 26, (7S)-7-(1-(2-((8-((2-(2,6-dioxopiperidin-3-yl)-1,3-dioxoisoindolin-4-yl)amino)octyl)oxy)acetyl)piperidin-4-yl)-2-(4-phenoxyphenyl)-4,5,6,7-tetrahydropyrazolo[1,5-a]pyrimidine-3-carboxamide]", "DC50": "> 10000"}
